What was measured:
[1] = test system: penicillin-sensitive (Pen-S) Strain 1279; experiment: Simultaneous identification of N. gonorrheae and antimicrobial susceptibility (Example 4); type: cell-based; conditions: penicillin 0.5, 1.0, 2.0 μg/ml, 10^8 bacteria
Description: (§1) Two strains of N. gonorrheae, penicillin-sensitive (Pen-S) Strain 1279 and penicillin-resistant (Pen-R) Strain 31426, were cultured overnight on Gc agar. A 0.5 McFarland was prepared immediately before wells were to be inoculated, and the two strains were each diluted to a concentration of 10^8 in FB. The bacteria-containing FB for each strain was split into four tubes, in which a different concentration of penicillin was added to each of the tubes of the two strains: 2.0 μg/ml, 1.0 μg/ml, 0.5 μg/ml, and buffer alone as a negative control. Microtiter wells were coated with 100 μl of a 1:200 dilution of rabbit polyclonal antibody directed against N. gonorrheae, and allowed to stand at 4 degrees Celsius overnight. […] Following blocking, wells were again washed three times with PBS. At this stage, the plates were either used immediately, or stored at 4 degrees Celsius for later use. Upon proceeding with the assay, 100 μl of the 10^8 dilution of the two strains of N. gonorrheae were placed in individual wells. The wells were shaken gently on a plate stirrer at room temperature for 15 minutes. Next, wells were washed three times with PBS, and 100 μl of an HRP-conjugated rabbit polyclonal antibody (1:50 dilution in PBS) directed against N. gonorrheae was added to the wells and incubated at room temperature for 5 minutes. Wells were washed three times with PBS, and then bound antibody was detected by the addition of 100 μl of TMB substrate. OD450) was read after allowing the plate to stand for three minutes at room temperature and stopping the reaction with stop solution (KPL). Negative controls consisted of the same preceding steps, but the addition of bacteria was omitted.

[2] = test system: penicillin-resistant (Pen-R) Strain 31426; experiment: as above; type: cell-based
Description: as §1

[3] = test system: Enterococcus faecium (Penicillin Resistant, i.e., VRE); experiment: N-Assay antibiotic susceptibility, Enterococcus with Penicillin G (Example 6); type: cell-based; conditions: for Detection of Enterococcus faecium: With Penicillin Present, 8 μg/ml Penicillin G, 18 hour incubation in nutrient broth
Description: (§2) Prior to performing the N-Assay, bacterial cultures were prepared as follows in order to establish the sensitivity of the assay. An inoculum was taken from a stock culture, and plated onto solid phase nutrient agar and incubated overnight at 37° C. E. faecalis, E. faecium (Vancomycin-Resistant Enterococcus, or VRE) and GBS isolates were plated onto colistin and naladixic acid agar, and N. gonorrheae was plated onto chocolate agar. The gonorrheal culture was performed in a CO2 incubator. Following an overnight culture, an isolated colony was selected of each bacterial species, and the isolated colonies were sub-cultured on solid phase for an additional 24 hours to ensure adequate viability was maintained. Following this, isolated cultures were used to inoculate nutrient broth (LIM broth was used for GBS, Fastidious broth with isovitalex 2% v/v for N. gonorrheae, and BHI broth was used for E. faecalis, E. faecium). A 0.5 McFarland was prepared for each bacterial species, and these were then diluted serially down to 10^−3 in nutrient broth and the OD630 immediately was determined. For each dilution, aliquots were obtained and agar plates were inoculated. The agar plates then were incubated at 37° C. for 24 hours, and the number of colony forming units (CFU) was determined for each bacterial species at each dilution. This was used to generate a standard curve, so that future dilutions when prepared could be developed with known concentrations of bacteria. […] A similar curve was generated for each bacteria studied.
(§3) Antibodies against selected bacteria were diluted 1:100 in coating buffer (carbonate bicarbonate buffer), and 100 μl were placed in microtiter wells and allowed to stand overnight at 4° C. The following day, wells were washed with PBS TWEEN 20 three times, and then blocked with 200 μl of STARTINGBLOCK for 30 minutes at room temperature. Following blocking, wells were washed three times with PBS TWEEN 20, and plates were either stored at 4° C. with a sterile cover placed over them for later use, or used immediately.
(§4) To determine antibiotic susceptibility of the four strains of bacteria, a 0.5 Mcfarland was prepared in nutrient broth and serially dilutions were established. The dilutions were incubated overnight for 18-24 hours at 37° C. (in a CO2 incubator for N. gonorrheae) with specific antibiotics. Parallel dilutions were prepared of each bacterium, in the presence and absence of specific antibiotics, as follows: (1) for E. faecalis, E. faecium, Penicillin G was added in varying concentrations, and as these concentrations were held constant, the bacterial concentration was diluted out; (2) the same parameters were set for GBS with the antibiotic clindamycin; and (3) the same parameters were set for N. gonorrheae with the antibiotic ceftriaxone.
(§5) Following overnight incubation in the presence or absence of the selected antibiotics, 100 μl of the bacterial suspensions were placed into previously coated wells, and plates were allowed to stand at room temperature for 15 minutes. After washing with PBS TWEEN 20 three times, 100 μl of HRP-conjugated antibody directed against the specific bacteria was added in a 1:100 dilution, and allowed to stand at room temperature for 7 minutes. Wells were washed three times with PBS TWEEN 20, and bound antibody was detected by the addition of 100 μl of TMB substrate. OD450) was read after allowing the plate to stand for 3 minutes at room temperature and stopping the reaction with stop solution (KPL).
(§6) After adding stop solution, wells were read at OD450. […] Alternatively, wells were determined to be positive if they turned yellow after addition of the stop solution, if a plate reader was not available.
(§7) These studies were repeated for E. faecalis, E. faecium and N. gonorrheae. For E. faecalis and E. faecium, Penicillin G was used to distinguish between E. faecalis and E. faecium, as E. faecium is resistant to Penicillin G. For N. gonorrheae, the antibiotic used was ceftriaxone.

[4] = test system: Enterococcus faecalis (Penicillin Sensitive); experiment: as above; type: cell-based; conditions: for Detection of Enterococcus faecalis: With Penicillin Present, 8 μg/ml Penicillin G, 18 hour incubation in nutrient broth
Description: as §2, §3, §4, §5, §6, §7

[5] = test system: Clindamycin Resistant Strain (GBS 11276); experiment: N-Assay antibiotic susceptibility, GBS with Clindamycin (Example 6); type: cell-based, Group B Streptococcus (GBS); conditions: for Detection of GBS: With Clindamycin Present, 4 μg/ml, 18 hour incubation in nutrient broth, resistant strain GBS 11276
Description: as §2, §3, §4
Following overnight incubation in the presence or absence of the selected antibiotics, 100 μl of the bacterial suspensions were placed into previously coated wells, and plates were allowed to stand at room temperature for 15 minutes. […] Wells were washed three times with PBS TWEEN 20, and bound antibody was detected by the addition of 100 μl of TMB substrate. OD450) was read after allowing the plate to stand for 3 minutes at room temperature and stopping the reaction with stop solution (KPL).
After adding stop solution, wells were read at OD450. […] Alternatively, wells were determined to be positive if they turned yellow after addition of the stop solution, if a plate reader was not available. […]

[6] = test system: N. gonorrheae (Ceftriaxone Resistant); experiment: N-Assay antibiotic susceptibility, N. gonorrheae with Ceftriaxone (Example 6); type: cell-based, Neisseria gonorrheae; conditions: With Ceftriaxone Present, 2 μg/ml
Description: as §2, §3, §4, §5, §6, §7

[7] = test system: N. gonorrheae (Ceftriaxone Sensitive); experiment: as above; type: cell-based, Neisseria gonorrheae; conditions: summary of Table 3
Description: as §2, §3, §4, §5, §6, §7

## CC1(C)S[C@@H]2[C@H](NC(=O)Cc3ccccc3)C(=O)N2[C@H]1C(=O)O [Penicillin G, penicillin G]
[1]
  OD450 signal of bound N. gonorrheae with increasing concentrations of penicillin: progressively decreasing positive signal
[2]; penicillin 0.5, 1.0, 2.0 μg/ml, 10^8 bacteria, Pen-R Strain 31426
  OD450 signal of bound N. gonorrheae between concentrations of penicillin: did not significantly vary
[2]; wells containing Pen-R strain 31426 with penicillin
  growth by turbidity at OD600: increasing turbidity
[3]; Table 2, with Penicillin G
  lowest dilution at which E. faecium was positive: 100 bacteria/ml
[3]; 1 CFU/ml
  Detection of Enterococcus faecium: +
[3]; 10 CFU/ml
  Detection of Enterococcus faecium: +
[3]; 100 CFU/ml
  Detection of Enterococcus faecium: +
[3]; 1,000 CFU/ml
  Detection of Enterococcus faecium: +
[3]; 10,000 CFU/ml
  Detection of Enterococcus faecium: +
[3]; 100,000 CFU/ml
  Detection of Enterococcus faecium: +
[3]; 1,000,000 CFU/ml
  Detection of Enterococcus faecium: +
[3]; 10,000,000 CFU/ml
  Detection of Enterococcus faecium: +
[4]; Table 2, with Penicillin G
  N-Assay result of wells containing E. faecalis: negative
[4]; 100,000 CFU/ml
  Detection of Enterococcus faecalis: +
[4]; 1,000,000 CFU/ml
  Detection of Enterococcus faecalis: +
[4]; 10,000,000 CFU/ml
  Detection of Enterococcus faecalis: +

## CCC[C@@H]1C[C@@H](C(=O)N[C@@H]([C@H]2O[C@H](SC)[C@H](O)[C@@H](O)[C@H]2O)[C@H](C)Cl)N(C)C1 [Clindamycin, clindamycin]
[5]; 10 CFU/ml
  Detection of GBS: +
[5]; 100 CFU/ml
  Detection of GBS: +
[5]; 1,000 CFU/ml
  Detection of GBS: +
[5]; 10,000 CFU/ml
  Detection of GBS: +
[5]; summary of Table 1, incubated 24 hours at 37° C. with Clindamycin
  lowest dilution at which GBS resistant to Clindamycin was positive: 100 bacteria/ml

## CO/N=C(\C(=O)N[C@@H]1C(=O)N2C(C(=O)O)=C(CSc3nc(=O)c(=O)[nH]n3C)CS[C@H]12)c1csc(N)n1 [Ceftriaxone, ceftriaxone]
[6]; 18 hour incubation in nutrient broth, 0.1 CFU/ml
  Detection of Neisseria gonorrheae: +
[6]; 18 hour incubation in nutrient broth, 1 CFU/ml
  Detection of Neisseria gonorrheae: +
[6]; 18 hour incubation in nutrient broth, 10 CFU/ml
  Detection of Neisseria gonorrheae: +
[6]; 18 hour incubation in nutrient broth, 100 CFU/ml
  Detection of Neisseria gonorrheae: +
[6]; 18 hour incubation in nutrient broth, 1,000 CFU/ml
  Detection of Neisseria gonorrheae: +
[6]; 18 hour incubation in nutrient broth, 10,000 CFU/ml
  Detection of Neisseria gonorrheae: +
[7]
  N-Assay result of wells containing N. gonorrheae: negative

— US9034583B2, “Rapid enzyme-linked immunosorbent assay for detection and identification of pathogens and determination of antimicrobial susceptibility” (priority 2013, dated 2015)
